Laboratory results published in patent US12023319B2, “Carboxylic acid aromatic amides” (priority 2016, dated 2024).

Each molecule was assayed on female Sprague Daley rats (assay: Isovolumetric bladder contraction model (rat)). Settings: single administration 1 mg/kg & 15 mg/kg, compared to vehicle.
Format: in vivo
From the text: 11. Isovolumetric Bladder Contraction Model (Rat) The aim of this study was to test the efficacy of Compound Examples on bladder function, in particularly on contraction frequency/intercontraction interval and contraction magnitude/contraction amplitude. The experimental setup for performing the isovolumetric bladder measurements was adapted to a previous descripted protocol (Yoshiyama M, de Groat W C. Am J Physiol Regul Integr Comp Physiol 280: […]-[…], 2001). Strong presence and target induction of BDKRB1 in comparison to BDKRB2 has been verified by gene expression analysis in bladders removed from rats after performance of the isovolumetric bladder contraction model in contrast to bladders of naïve, untreated rats. Immunohistochemistry confirmed the presence of BDKRB1 in bladders of rats after contraction, too. […] At least five cycles of isovolumetric bladder contractions were recorded before the Compound Examples or vehicle alone (PEG400/Water (50/50(v/v))) were administered via the catheter in the Vena jugularis at different dosages. About 2 minutes after compound administration the next nine contraction cycles were recorded. The change in contraction amplitude and intercontraction interval of the recorded bladder pressure and bladder contractions was calculated by comparing the means before and after compound administration using GraphPad Prism 7 program.

With O=C(O)c1cc(NC(=O)C2(c3ccc(C(F)(F)F)cc3F)CC2)ccc1-c1cnn(C2CCC2)c1 [Example 3, 2-(1-Cyclobutyl-1H-pyrazol-4-yl)-5-[({1-[2-fluoro-4-(trifluoromethyl)phenyl]cyclopropyl}carbonyl)amino]benzoic acid] the “intercontraction interval (ICI)” value was “significant efficacy on prolonging”.

For O=C(O)c1cc(NC(=O)C2(c3ccc(C(F)(F)F)cc3F)CC2)ccc1-c1cnn(C2CCC2)c1 [Example 3, 2-(1-Cyclobutyl-1H-pyrazol-4-yl)-5-[({1-[2-fluoro-4-(trifluoromethyl)phenyl]cyclopropyl}carbonyl)amino]benzoic acid], the “maximal pressure of bladder contractions” value was “remained unchanged”.

The molecules below were run against T1, human Bradykinin B1 receptor (Homo sapiens, UniProt P46663) (assay: Calcium flux assay (FLIPR), CHO-K1 cells expressing human Bradykinin B1 receptor, absence of 0.1% BSA (hB1 free IC50)). Settings: absence of 0.1% BSA in assay buffer.
T1 construct: host or cells: CHO-K1
T1 sequence (P46663 1-353): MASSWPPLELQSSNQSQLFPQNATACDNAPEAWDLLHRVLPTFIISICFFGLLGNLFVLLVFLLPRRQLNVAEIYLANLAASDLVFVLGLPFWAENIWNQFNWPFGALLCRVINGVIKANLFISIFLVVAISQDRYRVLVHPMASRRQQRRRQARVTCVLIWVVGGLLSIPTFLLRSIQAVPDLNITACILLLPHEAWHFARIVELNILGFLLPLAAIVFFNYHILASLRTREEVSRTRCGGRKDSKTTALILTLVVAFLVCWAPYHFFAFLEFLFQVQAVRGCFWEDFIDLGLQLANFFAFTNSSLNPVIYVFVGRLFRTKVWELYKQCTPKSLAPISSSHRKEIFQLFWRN
Format: cell-based
Procedure, shortened: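 CHO-K1 hB1-D1 cells, dye-loaded, given compounds (8 concentrations, triplicate, 1% DMSO) 30 min at 28° C, then stimulated with selective B1 agonist peptide; Ca2+ fluorescence read at 538 nm on FLIPR. Peak response normalised to DMSO and 20 µM Lys-(Des-Arg-Leu)-Bradykinin full inhibition; IC50 fitted.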

First: O=C(O)c1cc(NC(=O)C2(c3ccc(C(F)(F)F)cc3F)CC2)ccc1-c1cc2ccccc2s1 [Example 1, 2-(1-Benzothiophen-2-yl)-5-[({1-[2-fluoro-4-(trifluoromethyl)phenyl]cyclopropyl}carbonyl)amino]benzoic acid]
Second: O=C(O)c1cc(NC(=O)C2(c3ccc(C(F)(F)F)cc3F)CC2)ccc1-c1ccc(C(F)(F)F)nc1 [Example 6, 5-[({1-[2-Fluoro-4-(trifluoromethyl)phenyl]cyclopropyl}carbonyl)amino]-2-[6-(trifluoromethyl)pyridin-3-yl]benzoic acid]
The IC50 of the first is 32-fold lower: 6.5 nM for the first, 210 nM for the second. The first is the more potent here.

First: CCC(F)(F)c1ccc(-c2ccc(NC(=O)C3(c4ccc(C(F)(F)F)cc4F)CC3)cc2C(=O)O)cn1 [Example 2, 2-[6-(1,1-Difluoropropyl)pyridin-3-yl]-5-[({1-[2-fluoro-4-(trifluoromethyl)-phenyl]cyclopropyl}carbonyl)amino]benzoic acid]
Second: O=C(O)c1cc(NC(=O)C2(c3ccc(C(F)(F)F)cc3F)CC2)cc(F)c1-c1ccc(C(F)(F)F)nc1 [Example 29, 3-Fluoro-5-[({1-[2-fluoro-4-(trifluoromethyl)phenyl]cyclopropyl}carbonyl)amino]-2-[6-(trifluoromethyl)pyridin-3-yl]benzoic acid]
The IC50 of the first is 1.8-fold higher: 24 nM for the first, 13 nM for the second. The second is the more potent here.

Going from O=C(O)c1cc(NC(=O)C2(c3ccc(C(F)(F)F)cc3F)CC2)ccc1-c1cnn(C2CCC2)c1 [Example 3, 2-(1-Cyclobutyl-1H-pyrazol-4-yl)-5-[({1-[2-fluoro-4-(trifluoromethyl)phenyl]cyclopropyl}carbonyl)amino]benzoic acid] to O=C(O)c1cc(NC(=O)C2(c3ccc(C(F)(F)F)cc3F)CC2)cc(F)c1-c1cnn(C2CCC2)c1 [Example 42, 2-(1-Cyclobutyl-1H-pyrazol-4-yl)-3-fluoro-5-[({1-[2-fluoro-4-(trifluoromethyl)phenyl]cyclopropyl}carbonyl)amino]benzoic acid], the IC50 falls from 18 nM to 6.3 nM (2.9-fold).

O=C(O)c1cc(NC(=O)C2(c3ccc(OC(F)(F)F)cc3F)CC2)ccc1-c1ccc(C(F)F)nc1 [Example 5, 2-[6-(Difluoromethyl)pyridin-3-yl]-5-[({1-[2-fluoro-4-(trifluoromethoxy)phenyl]cyclopropyl}carbonyl)amino]benzoic acid] was tested, and the IC50 was 86 nM.
